Values joined by “and” are separate entries in the source; they are usually repeats but may differ in a detail not shown here. Identical values can stand only once.
Assays:
Assay type in all cases: in vivo
[1] = system: Casemaking Clothes Moths (Tinea pellionella); assay: Adult clothes moth repellency on treated woolen cloth (Example 5); details: fabric soaked in 20 g/L in ethanol, 2 days after moth introduction; for Moths Present, Treated Section, Total (%) / Moths Present, Untreated Section, Total (%): share of moths found in the two boxes; for The Number of Moths Present, Treated Section / The Number of Moths Present, Untreated Section: single replicates (n = 50); for The Number of Moths Present, Treated Section, Total / The Number of Moths Present, Untreated Section, Total: total of 4 replicates
Protocol: The effectiveness of compound 2 (example 1) to reduce the presence of cloth moths on woolen cloth was determined and was directly compared to the repellency of the well known moth repellents Citronellol and Farnesol.
The study was conducted in an air conditioned laboratory at a temperature of 22°±2° C. under a normal day/night cycle, using Casemaking Clothes Moths (Tinea pellionella) of mixed sex and age. The study is conducted over a 5 days period and the repellent effectiveness was assessed as follows:
Adults—2 days after insect introduction
A 10 cm×10 cm square of black woolen fabric free of bactericide) was soaked in a solution of the candidate repellent in ethanol at 20 g/L, squeezed and allowed to dry. The woollen square was placed in a small box (5 cm×10 cm×10 cm) which was open at one end to allow entry of adult clothes moth.
A similar square of fabric treated with ethanol (control) was placed in another box of the same size.
These two boxes were placed in an aquarium and 50 mixed sex adult moths were added. These were provided with food and water and left for 5 days.
At the end of 2 days the number of adult moths in each box was counted.
The above was repeated 3 times to provide 4 replicates.

[2] = system: Black Ants (Ochetellus sp); assay: Ant repellency on half-treated formica (Example 4); details: ants, 20 mg/m^2 on formica
Protocol: The effectiveness of compound 2 (example 1) as an insect repellent was determined using ants exposed to a formica surface partially treated/partially untreated with compound 2, and was directly compared to the repellency of the well known insect repellents Farnesol and Dihydrofarnesal.
The study was conducted in an air conditioned laboratory at a temperature of 22°±2° C. under a normal day/night cycle, using Black Ants (Ochetellus sp) of mixed sex and age. The study ws conducted over a 3 day period and the repellent effectiveness assessed 1, 2 and 3 days after ant introduction.
One half of a rectangle of formica 40 cm×30 cm was treated at 20 mg/m^2 with the test compounds. This was achieved by soaking a paper wipe (Rag On A Roll approximately 20 cm×20 cm) in a solution of the test compound in ethanol, squeezing out the excess liquid and wiping over the surface to give the required coverage. This was checked by weighing the cloth after application. The surface was allowed to dry. The other half was wiped with ethanol alone (untreated surface).
The treated formica rectangle was placed on the bench and a glass ring (diameter 20 cm) was placed on the rectangle. This had been treated with fluon to prevent ant escape.
A small plastic container 2 cm in diameter was placed on the formica, one on the treated surface and one on the untreated surface. The plastic container placed on the treated surface had repellent applied in the same way as the treated formica. The plastic container on the untreated surface was wiped with ethanol.
24 hours after treatment (1 day) 20 ants were added to the centre of the formica. No food and water was supplied for these ants. 2 hours after this the number of ants on the treated and untreated surfaces was counted.
The above was repeated 3 times to provide a total of 4 replicates.
The above was repeated at 2 days and 3 days. New ants were used at each time period.

[3] = system: German cockroaches (Blatella Germanica); assay: Cockroach repellency in tray with half-treated vinyl, compared with DEET and N-methyl-neodecanamide (Example 3); details: cockroaches, 20 mg/m^2 on vinyl
Protocol: The effectiveness of compound 2 (example 1) as an insect repellent was determined using German cockroaches exposed to a formica surface partially treated/partially un-treated, and was directly compared to the repellency of the well known insect repellents DEET (N,N-diethyl-meta-toluamide) and N-methyl-neodecanamide. The study was conducted in an air conditioned laboratory at a temperature of 22°±2° C. under a normal day/night cycle, using German cockroaches (Blatella Germanica) of mixed sex and age. The study was conducted over a 7 days period and the repellent effectiveness was assessed 1, 3, 5 and 7 days after cockroach introduction. Each tray used in the study consisted of a melamine square tray of sides 1.8m×1.8m and 20 cm high walls. The upper part of the wall was provided with electrical strip, which prevented cockroaches escaping. A square of vinyl 90 cm×180 cm was treated with the test compound at 20 mg/m^2. This was achieved by soaking a paper wipe (Rag on a Roll, ca. 20 cm×20 cm) in a solution of the test compound in ethanol, squeezing out the excess liquid and wiping over the surface to give the required coverage. This was checked by weighing the cloth after application. The surface was allowed to dry. The treated vinyl square was placed in one half of the tray. A similar untreated square was placed in the other half of the tray. This square was treated with ethanol alone. Two sheets of formica (30 cm×30 cm) were placed at one corner of each tray, one on the treated surface and one on the untreated surface. This acted as a cockroach harbourage. The formica sheet to be used in the treated section was treated at the same rate as the treated formica. The formica was placed on two 1 cm high bottle tops to allow cockroaches access under the formica. 50 German cockroaches were added (15 adults and 35 nymphs) to the middle of the tray. No food and water was supplied for these cockroaches. At 1, 2, 3 and 7 days after cockroach introduction the number of cockroaches under each harbourage was counted. After each count the harbourage position was change to avoid the possibility of habituation to one location, the harbourages were replaced and new cockroaches were added to replace any dead cockroaches. The above was repeated 3 times to provide a total of 4 replicates.

## CC(C)=CCCC(C)CCO (centres unmarked) [Citronellol]
[1]
  Moths Present, Treated Section, Total (%): (23.9%)
  Moths Present, Untreated Section, Total (%): (76.1%)
  The Number of Moths Present, Treated Section: 7 and 0 and 5 and 14
  The Number of Moths Present, Untreated Section: 20 and 12 and 26 and 25
  The Number of Moths Present, Treated Section, Total: 26
  The Number of Moths Present, Untreated Section, Total: 83

## CC(C)=CCCC(C)=CCCC(C)=CCO [Farnesol, 3,7,11-Trimethyl-2,6,10-dodecatrien-1-ol]
[2]; 1 day after treatment
  Percentage Dead: 0%
  Percentage Present, Treated Section: 20.0%
  Percentage Present, Untreated Section: 80.0%
[2]; 2 days after treatment
  Percentage Dead: 0%
  Percentage Present, Treated Section: 10.0%
  Percentage Present, Untreated Section: 90.0%
[2]; 3 days after treatment
  Percentage Dead: 0%
  Percentage Present, Treated Section: 20.0%
  Percentage Present, Untreated Section: 80.0%
[2]; average of days 1, 2 and 3
  Percentage Dead, Average: 0%
  Percentage Present, Untreated Section, Average: 83.3%
[1]
  Moths Present, Treated Section, Total (%): (26.0%)
  Moths Present, Untreated Section, Total (%): (74.0%)
  The Number of Moths Present, Treated Section: 9 (2×) and 4 and 5
  The Number of Moths Present, Untreated Section: 18 and 19 (2×) and 21
  The Number of Moths Present, Treated Section, Total: 27
  The Number of Moths Present, Untreated Section, Total: 77

## CCN(CC)C(=O)c1cccc(C)c1 [DEET, N,N-diethyl-meta-toluamide, reference compound]
[3]; 1 day after treatment
  Percentage Dead: 0.5%
  Percentage Present, Treated Section: 3.0%
  Percentage Present, Untreated Section: 96.5%
[3]; 2 days after treatment
  Percentage Dead: 1.5%
  Percentage Present, Treated Section: 2.5%
  Percentage Present, Untreated Section: 96.0%
[3]; 3 days after treatment
  Percentage Dead: 0.5%
  Percentage Present, Treated Section: 27.5%
  Percentage Present, Untreated Section: 72.0%
[3]; 7 days after treatment
  Percentage Dead: 1.0%
  Percentage Present, Treated Section: 55.0%
  Percentage Present, Untreated Section: 44.0%

— patent publication US20040028714A1, “Composition having insect repellent characteristics” (priority 2000, published 2004)
